Starred links: 1 amine or outer side, 2 acyl side, 3 side chain; linkers in the order of their positions; H or OH if unused. Positions of bridges follow the written chain, without caps; N, C: chain ends. Non-standard residues stand in square brackets, D forms with d. Residues, ends and D or L forms follow the SMILES beside them. *: point of attachment. hTyr(3S-OH,4S-OH,3'-OSO3H) = N[C@H](C(=O)O)[C@H](O)[C@@H](O)c1ccc(O)c(OS(=O)(=O)O)c1; Orn(4R-OH,5R-OH) = O=C([C@H](C[C@@H](O)[C@@H](O)N[*:3])N[*:1])[*:2]; Pro(3S-OH,4S-Me) = C[C@H]1CN[C@H](C(=O)O)[C@H]1O; X1 = CCCCCOc1ccc(-c2cc(-c3ccc(C(=O)*)cc3)no2)cc1; Gln(3R-OH) = NC(=O)C[C@@H](O)[C@H](N)C(=O)O; Hyp = O=C(O)[C@@H]1C[C@@H](O)CN1
Key:
[1] = Filtration through a Buchner funnel until no noticeable droplet outflowed; assay type: physicochemical
From the text: In this example, the precipitated solids from Examples 2-10 and Comparative Examples 1-3 were filtered through a Buchner funnel until no noticeable droplet outflowed, and the filtration processes were compared.

[2] = Vacuum-drying at 25° C. with a water system until no organic solvent detected by GC; purity by HPLC; assay type: physicochemical; conditions: for time Needed (for drying): 25° C., vacuum-drying with a water system until no organic solvent detected by GC; for Purity before drying / Purity after drying: HPLC; for Purity before drying: 5 g of solids; for Purity after drying: vacuum-dried at 25° C. with a water system until no organic solvent detected by GC
From the text: High performance liquid chromatography (HPLC) is a common method for determining the purity of a compound, wherein a liquid is used as the mobile phase and a high-pressure transfusion system is used for pumping the mobile phase, such as single solvents with different polarities, a mixture of solvents at different proportions, or buffers, into a column packed with a stationary phase. Each component is separated in the column, and then enters into a detector for detection, thereby analyzing a sample. In the present invention, HPLC is used for determining the purity of the compound of formula I and studying the stability of a sample. Conditions of the HPLC method are listed as follows:
Analysis Column: YMC-ODS 250×4.6 mm, 5 μm;
Mobile phase: acetonitrile:phosphate buffer (pH 3.0)=45:70;
Column temperature: 35° C.;
Diluent: aqueous phosphate buffer;
Detection wavelength: 210 nm;
Gas chromatography (GC) used to separate and measure trace impurities in a compound is an accurate, qualitative and quantitative method of analysis. In the present invention, the content of organic solvents in the crystalline powder of the compound of formula I obtained in the present invention is measured by gas chromatography (GC).
5 g of solids were prepared according to the methods of Examples 2-10 and Comparative Examples 1-3 respectively, placed at 25° C., and vacuum-dried together with a water system until no organic solvent was detected through GC. The time for drying was compared, and the purity of the sample was analyzed.

[3] = Ratio of dry weight to wet weight (Dry/Wet) of filtered solids; assay type: physicochemical; conditions: wet solids weighed after filtration, before drying
From the text: As used herein, the term “Dry/Wet” and “ratio of dry weight to wet weight” can be used interchangeably, both of which refer to the ratio of the weight of a compound without solvent(s) to the weight of the compound with solvent(s). In the present invention, wet weight of crystals is obtained by filtering the crystallized solids until no noticeable droplet outflows and weighing the solids.

[4] = Particle size distribution (d10, d50) by Malvern particle size analyzer / laser diffraction; assay type: physicochemical; conditions: for d10, particle size of the crystalline powder / d50, particle size of the crystalline powder: after drying
Experimental: […] Wherein, d10 and d50 are means known for indicating the particle size distribution. d50 refers to a value of particle size, and the size of 50 vol/% of particles is smaller than said value. D10 refers to a value of particle size, and the size of 10 vol/% of particles is smaller than said value. The preferred method for determining d10 and d50 is laser diffraction, d50 of the crystalline powder of the compound of formula I according to the present invention is determined as 10-100 um, and d10 is determined as 1-9 um. Preferably, d50 of the crystalline powder is 20-50 um, and d10 thereof is 1-5 um. Before solid-liquid separation, d50 of the crystalline powder of the compound of formula I is 10-100 um, and d10 thereof is 1-9 um. Preferably, d50 of the crystalline powder is 20-50 um, and d10 thereof is 3-6 um.

[5] = Exposure of dried B82 crystal to the environment (moisture uptake, stability); assay type: physicochemical
From the text: Before drying of the crystals, the content of solvent in the compound of formula I (Dry/Wet) was about 0.25, and a large amount of organic solvent was trapped in the crystal. To render the content of solvent in compliance with the requirements for active pharmaceutical ingredients (API), the drying temperature or the drying time has to be increased during the drying process. Such drying process, however, will increase the degradation product of the compound of formula I, seriously affecting the quality and stability of API.

[6] = Bulk density of powder by cylinder measurement; assay type: physicochemical; conditions: after drying
Experimental: “Bulk density of powder” is a measurement standard for the relative importance of the interaction between microparticles by comparing the bulk density and tapped density of the powder. Methods for measuring bulk density of powder are known in the art; for example, it can be determined by cylinder measurement, volumetric measurement, and container measurement. Bulk density of the crystalline powder of the compound of formula I according to the present invention is determined as less than 0.7 g/mL, preferably less than 0.6 g/mL, most preferably less than 0.5 g/mL, by cylinder measurement.

[7] = Ohigashi et al. 2006, cited from earlier work

Structure (SMILES) | Time for filtration [1] [min] | time Needed (for drying) [2] [h] | Purity before drying [2] [%] | Purity after drying [2] [%] | ratio of dry weight to wet weight (Dry/Wet) [3] | d50 of the obtained crystals ([4]; B82-type crystal prepared per Example 1 of WO03/018615) | d10, particle size of the crystalline powder [4] [um] | d50, particle size of the crystalline powder [4] [um] | moisture absorption when exposed to the environment [5] | stability when exposed to the environment [5] | Bulk density [6] [g/mL] | Bulk density ([6]; listed as B82-type crystals) | ratio of dry weight to wet weight (Dry/Wet) ([3]; listed as B82-type crystals) | content of solvent in the precipitate ([7]; amorphous precipitate before drying) | Dry/Wet of the precipitate before drying ([7]; amorphous precipitate from acetone/ethyl acetate)
CCCCCOc1ccc(-c2cc(-c3ccc(C(=O)N[C@H]4C[C@@H](O)[C@@H](O)NC(=O)[C@@H]5[C@@H](O)[C@@H](C)CN5C(=O)[C@H]([C@H](O)CC(N)=O)NC(=O)[C@H]([C@H](O)[C@@H](O)c5ccc(O)c(OS(=O)(=O)[O-])c5)NC(=O)[C@@H]5C[C@@H](O)CN5C(=O)[C@H]([C@@H](C)O)NC4=O)cc3)no2)cc1.[Na+] [Comparative Example 2, reference compound] (X1-[Orn(4R-OH,5R-OH)]T[Hyp][hTyr(3S-OH,4S-OH,3'-OSO3H)][Gln(3R-OH)][Pro(3S-OH,4S-Me)]; lactam 1-C) | 150 | 30 | 98.82 | 96.21 | 0.13 | – | – | – | – | – | – | – | – | – | –
CCCCCOc1ccc(-c2cc(-c3ccc(C(=O)N[C@H]4C[C@@H](O)[C@@H](O)NC(=O)[C@@H]5[C@@H](O)[C@@H](C)CN5C(=O)[C@H]([C@H](O)CC(N)=O)NC(=O)[C@H]([C@H](O)[C@@H](O)c5ccc(O)c(OS(=O)(=O)[O-])c5)NC(=O)[C@@H]5C[C@@H](O)CN5C(=O)[C@H]([C@@H](C)O)NC4=O)cc3)no2)cc1.[Na+] [Comparative Example 3, reference compound] (X1-[Orn(4R-OH,5R-OH)]T[Hyp][hTyr(3S-OH,4S-OH,3'-OSO3H)][Gln(3R-OH)][Pro(3S-OH,4S-Me)]; lactam 1-C) | 300 | 32 | 98.74 | 96.17 | 0.1 | – | – | – | – | – | – | – | – | – | –
CCCCCOc1ccc(-c2cc(-c3ccc(C(=O)N[C@H]4C[C@@H](O)[C@@H](O)NC(=O)[C@@H]5[C@@H](O)[C@@H](C)CN5C(=O)[C@H]([C@H](O)CC(N)=O)NC(=O)[C@H]([C@H](O)[C@@H](O)c5ccc(O)c(OS(=O)(=O)[O-])c5)NC(=O)[C@@H]5C[C@@H](O)CN5C(=O)[C@H]([C@@H](C)O)NC4=O)cc3)no2)cc1.[Na+] [Comparative Example 1, reference compound] (X1-[Orn(4R-OH,5R-OH)]T[Hyp][hTyr(3S-OH,4S-OH,3'-OSO3H)][Gln(3R-OH)][Pro(3S-OH,4S-Me)]; lactam 1-C) | 90 | 25 | 99.26 | 97.96 | 0.25 | 0.2-1.0 um | 0.25 | 0.7 | inclined to absorb moisture | poor stability | 0.85 | about 0.8 g/mL | about 0.25 | – | –
CCCCCOc1ccc(-c2cc(-c3ccc(C(=O)N[C@H]4C[C@@H](O)[C@@H](O)NC(=O)[C@@H]5[C@@H](O)[C@@H](C)CN5C(=O)[C@H]([C@H](O)CC(N)=O)NC(=O)[C@H]([C@H](O)[C@@H](O)c5ccc(O)c(OS(=O)(=O)[O-])c5)NC(=O)[C@@H]5C[C@@H](O)CN5C(=O)[C@H]([C@@H](C)O)NC4=O)cc3)no2)cc1.[Na+] [compound of formula I, 5-[(1S,2S)-2-[(3S,6S,9S,11R,15S,18S,20R,21R,24S,25S,26S)-3-[(R)-2-carbamoyl-1-hydroxyethyl]-11,20,21,25-tetrahydroxy-15-[(R)-1-hydroxyethyl]-26-methyl-2,5,8,14,17,23-hexaoxo-18-[4-[5-(4-pentoxyphenyl)isoxazol-3-yl]benzoylamino]-1,4,7,13,16,22-hexaazatricyclo[22.3.0.0.0^9,13]heptacosan-6-yl]-1,2-dihydroxyethyl]-2-hydroxy phenyl sulfate] (X1-[Orn(4R-OH,5R-OH)]T[Hyp][hTyr(3S-OH,4S-OH,3'-OSO3H)][Gln(3R-OH)][Pro(3S-OH,4S-Me)]; lactam 1-C) | – | – | – | – | – | – | – | – | – | – | – | – | – | about 75% | 0.25
CCCCCOc1ccc(-c2cc(-c3ccc(C(=O)N[C@H]4C[C@@H](O)[C@@H](O)NC(=O)[C@@H]5[C@@H](O)[C@@H](C)CN5C(=O)[C@H]([C@H](O)CC(N)=O)NC(=O)[C@H]([C@H](O)[C@@H](O)c5ccc(O)c(OS(=O)(=O)[O-])c5)NC(=O)[C@@H]5C[C@@H](O)CN5C(=O)[C@H]([C@@H](C)O)NC4=O)cc3)no2)cc1.[Na+] [Example 5] (X1-[Orn(4R-OH,5R-OH)]T[Hyp][hTyr(3S-OH,4S-OH,3'-OSO3H)][Gln(3R-OH)][Pro(3S-OH,4S-Me)]; lactam 1-C) | – | 10 | 99.52 | 99.47 | 0.66 | – | 9 | 97.7 | – | – | 0.6 | – | – | – | –
